Measurements from ChEMBL document CHEMBL1134806, “Parallel solid-phase synthesis of nucleoside phosphoramidate libraries” (Bioorg Med Chem Lett, 2001).

Columns and labels:
[1] = tested on: Hepatitis B virus; assay: Inhibitory activity was determined against Hepatitis B virus (HBV) at 10 uM using HepG2-derived 2.2.15 cell lines; assay type: functional, organism-based
[2] = tested on: Hepatitis B virus; assay: Cytotoxic activity was determined against Hepatitis B virus (HBV) at 10 uM using HepG2-derived 2.2.15 cell lines; assay type: functional; conditions: HepG2 2.2.15

Row | SMILES | IC50 [1] | CC50 [2]
1 | Nc1nc(O)c2ncn([C@H]3C[C@H](O)[C@@H](COP(=O)(O)O[C@@H]4C[C@@H](n5cnc6c(N)ncnc65)O[C@H]4COP(=O)(O)NC4CCCN4)O3)c2n1 (some centres undefined) | 2.1 µM | > 300 µM
2 | COc1ccc(CCNP(=O)(O)OC[C@H]2O[C@@H](n3ccc(=O)[nH]c3=O)[C@H](OC)[C@@H]2OP(=O)(O)OC[C@H]2O[C@@H](n3cnc4c(N)ncnc43)C[C@@H]2O)cc1OC | 4.4 µM | > 300 µM
